In one data set the test system is NB4 cell line. Put plainly: WST-1 viability assay, fatty acids dissolved in DMSO. In kind it is cell-based. The settings on record: 48 hours. Here is the method: NB4 cells at a concentration of 0.1×10^5 cells/mL were incubated with 37.5, 75, 150 and 300 μM of TTA, 2-tr-TTA and PA dissolved in DMSO for 48 hours. Cell viability was assessed with WST-1 assay after 4 hours of incubation, and the absorption was related to the DMSO-control. Cell viability is presented as percentage of DMSO-control (100%). The assay was performed with triplicates for each concentration of the individual SBFA and the result is presented as mean of the triplicates±SD, n=1.
(§1) As a preliminary test, NB4 was exposed to TTA, 2-tr-TTA and PA dissolved in DMSO in concentrations between 37.5 to 300 μM for 48 hours. […] It was decided to not try higher concentrations of TTA PA and 2-tr-TTA dissolved in DMSO because of DMSO's cellular toxicity. In this project, one aim was to compare TTA with N-TTA and 2-tr-N-TTA. […] Compared to DMSO-control there was no significant decrease in cell viability after treatment with B SFAs dissolved in DMSO (p>0.05).

A short description of another data set: Solubility in solvents. In kind it is physicochemical. Here is the method:
Hydrogenated egg phosphatidylcholine (HEPC), cholesterol (CHO) and fatty acid compound (PA, N-TTA and TTA) were weighed out separately and dissolved in chloroform. N-TTA is not soluble in chloroform alone and was therefore dissolved in a 1:1 mixture of methanol and chloroform. The dissolved lipids were mixed in a molar ratio of 1.81 HEPC:1CHO and 0.5-2 PA/N-TTA/TTA in a 100 or 250 mL Duran round bottom flasks. Next, a thin lipid film was made by slowly evaporating the solvents by using Laborota 4000 rotary evaporator at light vacuum, 200 mbar, and 60 rpm for 1.5-2.5 hours depending on the volume of solvents. To ensure a solvent-free lipid film, full vacuum (0 mbar) was applied the last 30 minutes.
as §1

The structures appear in SMILES notation. Counter-ions that a name gives are not always drawn.

This is an account of results in patent US20220362151A1, “LIPOSOME FORMULATION” (ROSI CHARNI AS, priority 2019, published 2022).

For the molecule `CC#CCCCCCCCCCCCSCC(=O)O` [2-tr-TTA, 2-(Tetradec-12-yn-1-ylthio)acetic acid], in the data set on NB4 cell line (NB4, 37.5-300 μM dissolved in DMSO, n=1, p>0.05), the “cell viability (percentage of DMSO-control), WST-1” value is listed as “lack of significant antiproliferative effect”. Further, the “metabolic activity (WST-1), trend as presented in FIG. 1” value in the data set on NB4 cell line (NB4, 37.5-300 μM in DMSO, stimulating effect especially at 75 μM) was “stimulating effect”. For the molecule `CCCCCCCCCCCCCCNCC(=O)O` [N-TTA, N-tetradecylglycine], the “solubility in DMSO” value in “Solubility in solvents” was “seemingly insoluble”. For the same molecule, the solubility in chloroform entry in “Solubility in solvents” (chloroform alone, dissolved in 1:1 methanol and chloroform) is listed as “not soluble”. With `CC#CCCCCCCCCCCCNCC(=O)O` [2-trN-TTA, Tetradec-12-yn-1-ylglycine hydrochloride], in the data set “Solubility in solvents”, the “solubility in DMSO” value is recorded as “seemingly insoluble”.
